Several values for one entry are separate records, joined by “and”; a condition that tells them apart may be missing. Equal values may be shown once. Blank lines part the entries; values can stand above or below the compound they belong to.
Key:
D1 = D1 (Homo sapiens, UniProt P21728); assay: Off target binding, D1 receptor
Source text: (§1) Off target screening data were obtained through the NIDA Addiction Treatment Discovery Program contract (ADA151001) with Oregon Health & Science University.

D4 = molecular target: T1, D4 (Homo sapiens, UniProt P21917); assay: Off target binding, D4 receptor
T1 sequence (P21917 1-419): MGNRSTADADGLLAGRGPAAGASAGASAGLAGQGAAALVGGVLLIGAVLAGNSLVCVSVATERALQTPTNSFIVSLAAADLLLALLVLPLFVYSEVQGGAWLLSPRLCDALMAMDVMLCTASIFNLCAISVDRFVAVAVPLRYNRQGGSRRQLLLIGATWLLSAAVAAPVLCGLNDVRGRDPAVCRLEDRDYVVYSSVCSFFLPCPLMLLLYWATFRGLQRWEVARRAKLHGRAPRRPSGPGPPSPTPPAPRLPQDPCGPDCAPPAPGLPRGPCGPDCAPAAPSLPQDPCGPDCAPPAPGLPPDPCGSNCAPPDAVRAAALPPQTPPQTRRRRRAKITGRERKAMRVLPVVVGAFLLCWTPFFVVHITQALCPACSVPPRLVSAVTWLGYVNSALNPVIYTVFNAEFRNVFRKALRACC
Source text: as §1

5-HT1A = molecular target: T2, 5-HT1A (Homo sapiens, UniProt P08908); assay: Off target binding, 5-HT1A receptor
T2 sequence (P08908 1-422): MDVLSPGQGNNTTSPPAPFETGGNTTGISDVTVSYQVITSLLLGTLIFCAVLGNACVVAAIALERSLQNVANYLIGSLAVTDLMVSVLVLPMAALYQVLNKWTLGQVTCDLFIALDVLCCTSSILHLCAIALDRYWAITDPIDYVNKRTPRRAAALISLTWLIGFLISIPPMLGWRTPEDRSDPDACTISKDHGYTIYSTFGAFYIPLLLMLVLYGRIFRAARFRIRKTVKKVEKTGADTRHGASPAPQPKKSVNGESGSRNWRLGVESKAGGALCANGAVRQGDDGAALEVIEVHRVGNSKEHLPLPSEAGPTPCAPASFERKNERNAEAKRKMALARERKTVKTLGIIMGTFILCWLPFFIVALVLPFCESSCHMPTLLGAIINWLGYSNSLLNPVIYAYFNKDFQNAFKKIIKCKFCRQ
Source text: as §1

5-HT2A = 5-HT2A (Homo sapiens, UniProt P28223); assay: Off target binding, 5-HT2A receptor
Chain of 5-HT2A (P28223 whole entry, species assumed): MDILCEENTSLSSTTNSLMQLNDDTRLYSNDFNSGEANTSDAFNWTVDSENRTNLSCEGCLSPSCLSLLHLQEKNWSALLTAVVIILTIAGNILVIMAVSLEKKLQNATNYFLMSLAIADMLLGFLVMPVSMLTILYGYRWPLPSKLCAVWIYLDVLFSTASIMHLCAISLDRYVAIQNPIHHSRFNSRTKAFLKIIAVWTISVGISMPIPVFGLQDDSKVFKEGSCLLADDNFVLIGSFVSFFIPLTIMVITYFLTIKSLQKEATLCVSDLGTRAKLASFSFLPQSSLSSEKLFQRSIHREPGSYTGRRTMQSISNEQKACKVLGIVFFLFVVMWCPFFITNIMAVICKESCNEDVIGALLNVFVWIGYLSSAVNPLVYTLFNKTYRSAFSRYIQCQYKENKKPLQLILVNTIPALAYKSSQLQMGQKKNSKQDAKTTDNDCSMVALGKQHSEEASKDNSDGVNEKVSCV
Source text: as §1

[1] = set-up: method as in PMID 19573609; details: cited from earlier work
[2] = Stability of formulated radioligand in saline containing ethanol; format: physicochemical; details: saline containing ethanol (10% v/v), up to 2.5 h; initial 99%
[3] = Lipophilicity (logD7.4), 1-octanol/sodium phosphate buffer; format: physicochemical; details: room temperature, 1-octanol/sodium phosphate buffer pH 7.4, n = 6
Description: The radioligand in ethanol/saline was placed in sodium phosphate buffer (0.15 M, pH 7.4) for the duration of the experiment followed by the determination of its radiochemical purity to obtain information on its stability in buffer. […] Aliquots (1.0 mL) were distributed to eight borosilicate disposable culture tubes (13 × 100 mm). […] Radioactivities from six tubes were extracted with 1-octanol. Extraction was performed by vortexing the tubes with their content for 1 min. The tubes were centrifuged for 1 min. The organic and the aqueous phases were separated. Each phase was then sampled 50 μL and 200 μL respectively and counted separately in a well-type γ-counter (model 1480 Wizard; Perkin-Elmer) with an electronic window set between 360 and 1800 keV. The remaining two tubes, contained the radioactivity in buffer and served as stability measures for the radioligand. […] The radiochemical composition of the aqueous buffer after extraction with 1-octanol was determined with HPLC on an X-Terra C18 column (10 μm, 7.8 × 300 mm; Waters Corp., Milford, MA, USA) eluted with MeOH:H2O:Et3N (80:20:0.1 v/v/v) at 4.0 mL/min. […] The resulting radiochromatograms provided correction factors for the γ-counter counts to determine parent radioactivity only (corrected radioactivity). […] LogD7.4 was calculated according to the following formula:(1) logD7.4=log(cpm organic phase/corrected cpm aqueous phase)

[4] = Plasma free fraction by ultrafiltration; format: in vitro ADME; details: human plasma, n = 3; read-out: Human plasma free fraction (fp)
Description: The mixture was incubated at room temperature for 10 min and then processed as described previously. The ultrafiltration components that contained high radioactivity were allowed to decay to within the optimal range of the γ-counter before they were counted. Quantification of the ultrafiltrates was performed gravimetrically.

[5] = Tissue stability, rat whole blood, plasma and brain homogenate; format: in vitro ADME; details: at least 30 min at 37 °C
Description: (§2) These tissues were stored frozen at −70 °C but thawed on the day of analysis. […] Plasma analysis was performed as reported previously.

[6] = Tissue stability, human plasma and brain homogenate; format: in vitro ADME; details: at least 30 min at 37 °C
Description: as §2

[7] = Tissue stability, monkey brain homogenate; format: in vitro ADME; details: at least 30 min at 37 °C
Description: as §2

[8] = Cell uptake percentage in rat whole blood in vitro; format: in vitro ADME; details: in vitro at 37 °C, n = 3
Description: The capillary tubes were then centrifuged, and Hct determined using a StatSpin® CritSpin™ Microhematocrit system (Los Angeles, CA, USA). Aliquots of anticoagulated rat blood (250 µL) were placed in three Eppendorf tubes (1.5 mL). […] Then whole blood (50 µL) was removed from each tube and counted in the γ-counter. The tubes were then centrifuged before removing plasma (50 µL) for γ-counting.

[9] = Rat ex vivo measurements (radiometabolites and tissue concentrations); format: in vivo; details: for Unmetabolized [^11C]1: 30 min after i.v. injection
Description: The rats were then immediately sacrificed by decapitation, and their cortices, cerebella, and striata were excised. Each of the brain tissues was placed in MeCN (1 mL) and counted in a γ-counter. […] Water (500 μL) was then added and the tissues were further homogenized and counted in the γ-counter for calculating recoveries into MeCN. The homogenates were centrifuged at 10,000× g for 1 min. […] After separating plasma from blood cells, plasma samples (200 μL) were counted in γ-counter and plasma aliquots (450 μL) were each placed in MeCN (720 μL) along with of carrier 1 (5 μg) for deproteinization. After mixing the samples well, H2O (100 μL) was added. The samples were further mixed well, counted in a γ-counter, and centrifuged at 10,000× g for 1 min. Supernatants were injected onto the radio-HPLC and analyzed under the above conditions. All precipitates were counted in the γ-counter for calculating recoveries in the supernatants that were injected onto the HPLC.

D3R [10] = molecular target: T3, D3R (Rattus norvegicus, UniProt P19020); assay: PET imaging in rats; format: in vivo; details: for Peak brain radioactivity concentration: rat PET
T3 construct: from tissue; host or cells: brain of living Sprague-Dawley rats
T3 sequence (P19020 whole entry): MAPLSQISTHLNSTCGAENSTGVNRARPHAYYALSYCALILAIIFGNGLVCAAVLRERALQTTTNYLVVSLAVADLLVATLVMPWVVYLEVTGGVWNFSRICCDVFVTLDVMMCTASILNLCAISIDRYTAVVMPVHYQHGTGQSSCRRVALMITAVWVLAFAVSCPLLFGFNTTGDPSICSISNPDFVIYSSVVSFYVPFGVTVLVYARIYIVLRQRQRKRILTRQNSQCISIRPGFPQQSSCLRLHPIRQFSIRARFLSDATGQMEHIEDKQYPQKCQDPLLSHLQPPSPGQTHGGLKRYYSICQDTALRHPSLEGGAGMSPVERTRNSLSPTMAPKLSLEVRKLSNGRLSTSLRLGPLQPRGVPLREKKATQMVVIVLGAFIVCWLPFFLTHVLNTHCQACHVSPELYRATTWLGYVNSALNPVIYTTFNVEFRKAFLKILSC
Description: (§3) In some rats, tariquidar (16 mg/kg, i.v.) was administered at 15 min before radioligand injection. […] For experiments in mice (wild type and P-gp/BCRP knock-out; male; Taconic FVB.129P2-Abcb1a^tm1BorAbcb1b^tm1BorAbcg2^tm1AhsN7; 27 ± 1.1 g), scans were acquired with a microPET Focus 120 camera for a duration of 90 min. […] Monkey (male rhesus macaque, 9.9 kg) experiments were acquired using microPET Focus 220 (Siemens Medical Solutions, Knoxville TN) for a duration of 90 min.
(§4) Images were reconstructed using Fourier rebinning followed by 2D OSEM with attenuation correction for rats and monkey and without attenuation correction for mice. Scatter correction was applied only for monkey. Volume of interests were delineated manually for rats and mice, and with a co-registered MRI template for monkey. All radioactivity was decay-corrected and expressed as standardized uptake value (SUV) which is radioactivity concentration corrected for subject weight and administered dose. Time activity curves in SUV were obtained and compared between conditions. The PET data analysis was performed using PMOD.

P-gp/BCRP = assay: PET imaging in wild type and P-gp/BCRP knock-out mice; format: in vivo, mouse
Description: as §3, §4

D3R [11] = assay: PET imaging in monkey; format: in vivo, rhesus macaque; details: for AUC 0-90 min higher than at baseline: tariquidar
Description: as §3, §4

Chain of D1 (P21728 whole entry): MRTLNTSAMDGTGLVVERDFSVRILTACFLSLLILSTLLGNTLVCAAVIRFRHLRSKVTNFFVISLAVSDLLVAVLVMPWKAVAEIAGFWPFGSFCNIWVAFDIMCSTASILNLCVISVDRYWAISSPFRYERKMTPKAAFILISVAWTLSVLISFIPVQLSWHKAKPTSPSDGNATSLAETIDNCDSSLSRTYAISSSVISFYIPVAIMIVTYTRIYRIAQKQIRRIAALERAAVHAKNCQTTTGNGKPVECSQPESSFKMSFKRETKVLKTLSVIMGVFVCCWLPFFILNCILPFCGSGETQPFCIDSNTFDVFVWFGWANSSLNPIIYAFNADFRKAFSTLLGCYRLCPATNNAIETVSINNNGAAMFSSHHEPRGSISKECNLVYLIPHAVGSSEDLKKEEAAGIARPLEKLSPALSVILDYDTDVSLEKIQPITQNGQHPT

Ki (D1): 2290 ± 340 nM
Ki (D4): 300 ± 100 nM
Ki (5-HT1A): 92.3 ± 8 nM
Ki (5-HT2A): 19.7 ± 1.4 nM
Structure (SMILES): COc1c(Cl)cccc1N1CCN(CCCCNC(=O)c2cc3ccccc3[nH]2)CC1 [Compound 1, N-(4-(4-(3-chloro-2-methoxyphenyl)piperazin-1-yl)butyl)-1H-indole-2-carboxamide]

Structure (SMILES): C[C@@H](N[C@@H]1C[C@H](c2cccc(O[11CH3])c2)N(c2ccc(C(F)(F)F)cc2)C1=O)c1ccccc1 [[^11C]MePPEP]
plasma free fraction (fp) [1]: 0.05 ± 0.01%

melting point: 148 to 149 °C
Structure (SMILES): O=C(NCCCCN1CCN(c2cccc(Cl)c2O)CC1)c1cc2ccccc2[nH]1 [Compound 2, N-(4-(4-(3-Chloro-2-hydroxyphenyl)piperazin-1-yl)butyl)-1H-indole-2-carboxamide]

radiochemical purity after storage (stability) [2]: 96%
logD [3]: 3.33 ± 0.13
fraction unbound at 10 min [4]: 0.0015 ± 0.0001
stability ([5]; rat brain homogenate): 99.4%
stability ([5]; rat plasma): 98.8%
stability ([5]; rat whole blood): 100%
stability ([6]; human brain homogenate): 99.8%
stability ([6]; human plasma): 99.3%
stability [7]: 100%
cellular uptake in rat whole blood [8]: 55.2 ± 1.1%
increase of rat brain tissue concentration, tariquidar-treated vs untreated ([9]; ex vivo, 30 min, tariquidar 16 mg/kg i.v.): 2.4–2.6 fold
Unmetabolized [^11C]1 ([9]; rat cerebellum, baseline): 98.8%
[^11C]1 Concentration ([9]; rat cerebellum, baseline, ex vivo 30 min): 1.20 SUV
Unmetabolized [^11C]1 ([9]; rat cerebellum, tariquidar-treated): 98.8%
[^11C]1 Concentration ([9]; rat cerebellum, tariquidar-treated, ex vivo 30 min): 2.84 SUV
Unmetabolized [^11C]1 ([9]; rat cortex, baseline): 99.0%
[^11C]1 Concentration ([9]; rat cortex, baseline, ex vivo 30 min): 1.33 SUV
Unmetabolized [^11C]1 ([9]; rat cortex, tariquidar-treated): 98.7%
[^11C]1 Concentration ([9]; rat cortex, tariquidar-treated, ex vivo 30 min): 3.49 SUV
Unmetabolized [^11C]1 ([9]; rat plasma, baseline): 76% and 76.1%
[^11C]1 Concentration ([9]; rat plasma, baseline, ex vivo 30 min after i.v. injection): 0.06 SUV
[^11C]1 Concentration ([9]; rat plasma, tariquidar-treated (16 mg/kg, i.v.), ex vivo 30 min): 0.04 SUV
Unmetabolized [^11C]1 ([9]; rat plasma, tariquidar-treated): 69% and 68.9%
Unmetabolized [^11C]1 ([9]; rat striatum, baseline): 99.3%
[^11C]1 Concentration ([9]; rat striatum, baseline, ex vivo 30 min): 1.36 SUV
Unmetabolized [^11C]1 ([9]; rat striatum, tariquidar-treated): 98.8%
[^11C]1 Concentration ([9]; rat striatum, tariquidar-treated, ex vivo 30 min): 3.53 SUV
[^11C]1 Concentration ([9]; rat whole blood, baseline, ex vivo 30 min): 0.09 SUV
[^11C]1 Concentration ([9]; rat whole blood, tariquidar-treated, ex vivo 30 min): 0.07 SUV
Peak brain radioactivity concentration (D3R [10]; after tariquidar (16 mg/kg, i.v.)): 3.4 SUV
Peak brain radioactivity concentration (D3R [10]; baseline): 1.1 SUV
change in brain TACs on BP897 challenge (D3R [10]; rats, tariquidar 16 mg/kg i.v., BP897 0.5 mg/kg i.v. 10 min before or 15 min after radioligand): No major changes
change in brain TACs on spiperone challenge (D3R [10]; rats, tariquidar 16 mg/kg i.v., spiperone 1.0 mg/kg i.v. 10 min before or 15 min after radioligand): No obvious changes
peak brain uptake (P-gp/BCRP; P-gp/BCRP KO mice): 1.6 SUV
efflux transporter substrate behaviour (P-gp/BCRP; rodents): avid brain efflux transporter substrate
peak brain uptake (P-gp/BCRP; wild type mice): 0.7 SUV
peak whole brain radioactivity uptake (D3R [11]; baseline): 2−3 SUV
AUC 0-90 min higher than at baseline (D3R [11]; occipital cortex): ~ 20%
AUC 0-90 min higher than at baseline (D3R [11]; putamen): 70%
Structure (SMILES): [11CH3]Oc1c(Cl)cccc1N1CCN(CCCCNC(=O)c2cc3ccccc3[nH]2)CC1 [[^11C]1, [O-methyl-^11C]N-(4-(4-(3-Chloro-2-methoxyphenyl)-piperazin-1-yl)butyl)-1H-indole-2-carboxamide]

Source: paper PMC6278341 (Molecules, 2018)
